Measurements taken from publication PMC7118841 (Biomedicine & Pharmacotherapy, 2006).
Read-outs that look alike come from different tables or passages of the source.

Assays:
MDCK cells = conditions: cited from earlier work
[1] = system: FluV A R-2 (HA Ile202Thr); conditions: read-out: EC50, Plaque reduction; strain R-2; cited from earlier work
[2] = system: FluV A R-b (HA Lys189Asn); conditions: read-out: EC50, Plaque reduction; strain R-b; cited from earlier work
FluV A [3] = conditions: read-out: EC50, FluV A; MTT method; cited from earlier work
[4] = system: FluV A R-4 (HA Ile202Thr); conditions: read-out: EC50, Plaque reduction; strain R-4; cited from earlier work
[5] = system: FluV A R-b (HA Lys189Asn); conditions: read-out: EC50, MTT; strain R-b; cited from earlier work
[6] = system: FluV A (N3H2/Ishikawa and H1N1/PR8); conditions: rhodamine-labeled virus, MDCK cells; 10 and 25 μM; cited from earlier work
HIV-1 = conditions: read-out: EC50, HIV-1; MTT method; cited from earlier work
CDV = conditions: read-out: EC50, CDV; plaque reduction method; cited from earlier work
SARS-V = type: cell-based, SARS coronavirus; conditions: read-out: EC50, SARS-V
TGEV = type: cell-based, transmissible gastroenteritis virus of swine; conditions: read-out: EC50, TGEV
[7] = system: FluV A R-c (HA Lys189Asn, Ile202Val); conditions: read-out: EC50, Plaque reduction; strain R-c; cited from earlier work
[8] = system: FluV A R-2 (HA Ile202Thr); conditions: read-out: EC50, MTT; strain R-2; cited from earlier work
FIPV = type: cell-based, feline infectious peritonitis virus; conditions: read-out: EC50, FIPV
[9] = system: FluV A R-1 (HA Lys189Asn, Ile202Thr); conditions: read-out: EC50, MTT; strain R-1; cited from earlier work
PfluV 2 = conditions: read-out: EC50, PfluV 2; MTT method; cited from earlier work
[10] = system: Ishikawa/AH3N2/(plaque purified) strain; conditions: read-out: EC50, MTT; Parent strain; cited from earlier work
[11] = system: Ishikawa/AH3N2/(plaque purified) strain; conditions: read-out: EC50, Plaque reduction; Parent strain; cited from earlier work
RSV = conditions: read-out: EC50, RSV; MTT method; cited from earlier work
[12] = system: FluV A R-4 (HA Ile202Thr); conditions: read-out: EC50, MTT; strain R-4; cited from earlier work
FluV A [13] = conditions: read-out: EC50 against FluV A; cited from earlier work
[14] = system: FluV A R-c (HA Lys189Asn, Ile202Val); conditions: read-out: EC50, MTT; strain R-c; cited from earlier work
FluV A (H1N1/PR8) = conditions: cited from earlier work
DFV = conditions: cited from earlier work
[15] = system: FluV A R-1 (HA Lys189Asn, Ile202Thr); conditions: read-out: EC50, Plaque reduction; strain R-1; cited from earlier work

In the case of (iPrNH3)6H[PTi2W10O38(O2)2]H2O [PM-523], the “Percent viability of cells” value (MDCK cells; single compound at 100 μM, untreated cells = 100%) is given as 81.1 ± 2.9%, the “Percent viability of cells” value (MDCK cells; single compound at 200 μM) is given as 89.3 ± 5.8% and the “Percent viability of cells” value (MDCK cells; single compound at 400 μM) is given as 85.2 ± 3.5%. For the same substance, the EC50 [1] was 73.6 ± 10.8 µM, the EC50 [2] was 66.7 ± 6.2 µM and the EC50 (FluV A [3]) was 5.6 ± 2 µM. For the same substance, the EC50 [4] was 88.1 ± 9.9 µM, the EC50 [5] was 63 ± 7 µM and the “dequenching of fluorescence (fusion of FluV A envelope with cell membrane)” value [6] was “remarkably reduced”. The EC50 (HIV-1) was 0.3 ± 0.1 µM, the EC50 (CDV) was 7.3 ± 1.1 µM and the EC50 (SARS-V) was > 50 µM. The EC50 (TGEV) was 2.5 ± 0.6 µM, the EC50 [7] was 78.9 ± 9.4 µM and the EC50 [8] was 67.8 ± 6.5 µM. For the same substance, the EC50 (FIPV) was > 32 µM, the EC50 [9] was 71.4 ± 6.8 µM and the EC50 (PfluV 2) was 2.5 ± 1.3 µM. For the same substance, the EC50 [10] was 8.7 ± 1.2 µM, the EC50 [11] was 6.6 ± 0.8 µM and the EC50 (RSV) was 1.3 ± 0.5 µM. The EC50 [12] was 79 ± 10.2 µM, the EC50 (FluV A [13]) was 2.4 µM and the EC50 [14] was 80.3 ± 6.8 µM. The “appearance of lungs of infected mice” value (FluV A (H1N1/PR8); 2.4 mM PM-523 alone, data not shown) was “swollen and reddened due to congestion”, the “mice survived on the 9th day” value (FluV A (H1N1/PR8); 4.8 mM PM-523 aerosol every 12 hours for 4 days, 10 LD50 FluV A) was “half” and the “survival at 14 days after the infection” value (FluV A (H1N1/PR8); 4.8 mM PM-523 alone) was 20%. For the same substance, the “antiviral activity against DFV” value (DFV) was “did not have antiviral activities”, the EC50 (DFV; read-out: EC50, DFV, MTT method) was > 61.5 µM and the EC50 [15] was 74.5 ± 10.2 µM.
